According to patent US20190105337A1, “METHODS OF TREATING BACTERIAL INFECTIONS” (priority 2015, published 2019):

Assay: Example 2: treatment emergent adverse events, single dose phase
Format: in vivo, human
Settings: Pooled Meropenem alone
Protocol: The combination of both drugs was administered on day 7. All drugs were infused over 3 hours. Plasma and urine samples were obtained and assayed using validated HPLC/MS methods.
No subjects discontinued due to AEs and no SAEs were observed.

C[C@@H](O)[C@H]1C(=O)N2C(C(=O)O)=C(S[C@@H]3CN[C@H](C(=O)N(C)C)C3)[C@H](C)[C@H]12 [meropenem, Meropenem]
Headache, %: 37% | Infusion site pain, %: 10% | PK catheter site hematoma, %: 21% | PK catheter site pain, %: 10% | Subjects with TEAEs, %: 95%
